PubChem BioAssay AID2060884 (Molecular Pharmacology Branch, DTP, NCI, 2025)
Where “and” joins values, the source holds several entries; their conditions need not be identical. Equal entries are not always repeated.

Test system: NCI-H929 complex spheroids, viability % test/control
Test: Anticancer human tumor NCI-H929 cell line growth inhibition [RAS];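 further: compound exposure lasted seven days before viability was read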;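 on viability, T/C: 100% = DMSO vehicle control viability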
Settings: for viability, T/C: stronger effect = lower value
In short: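 Tumour cells grown as complex spheroids with HUVEC endothelial cells and mesenchymal stem cells, treated with RAS pathway inhibitor combinations. Each agent spans half-log steps from near clinical Cmax, or 10 microM where Cmax is unknown.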

C#Cc1c(F)ccc2cc(O)cc(-c3ncc4c(N5CC6CCC(C5)N6)nc(OCC56CCCN5CC(F)C6)nc4c3F)c12 (stereo not given)
viability, T/C (compound 0.0316 µM): 102% [middle of 8 runs] | viability, T/C (compound 0.1 µM): 103% [middle of 8 runs] | viability, T/C (compound 0.316 µM): 101% [middle of 8 runs] | viability, T/C (compound 1 µM): 97% [middle of 8 runs] | viability, T/C (compound 3.16 µM): 97.6% [middle of 8 runs] | viability, T/C (compound 10 µM): 96.6% [middle of 8 runs] | IC50 (compound alone, run of 09/09/2024): > 10000 nM

CC(C)NCC(C(=O)N1CCN(c2ncnc3c2C(C)CC3O)CC1)c1ccc(Cl)cc1 (stereo not given)
viability, T/C (compound 0.0316 µM): 106% [middle of 4 runs] | viability, T/C (compound 0.1 µM): 102% [middle of 4 runs] | viability, T/C (compound 0.316 µM): 108% (2×) and 99.3% and 103% | viability, T/C (compound 1 µM): 104% (2×) and 62.6% and 71.6% | viability, T/C (compound 10 µM): 12.8% [middle of 4 runs] | IC50 (curve of compound): 3.45 µM [middle of 4 runs]

CCN1CCN(Cc2ccc(Nc3ncc(F)c(-c4cc(F)c5nc(C)n(C(C)C)c5c4)n3)nc2)CC1 + C=CC(=O)N1CCN(c2nc(OCC3CCCN3C)nc3c(F)c(-c4nc(N)cc(C)c4C(F)(F)F)c(Cl)cc23)C(C)C1
IC50 (curve of first compound, second compound 0.00316 µM): > 1000 nM | IC50 (curve of first compound, second compound 0.01 µM): > 1000 nM | IC50 (curve of first compound, second compound 0.0316 µM): > 1000 nM | IC50 (curve of first compound, second compound 0.1 µM): > 1000 nM | IC50 (curve of first compound, second compound 0.316 µM): > 1000 nM | IC50 (curve of first compound, second compound 1 µM): > 1000 nM | viability, T/C (second compound 0.00316 µM, first compound 0.00316 µM): 99.6% | viability, T/C (second compound 0.00316 µM, first compound 0.01 µM): 97.4% | viability, T/C (second compound 0.00316 µM, first compound 0.0316 µM): 108% | viability, T/C (second compound 0.00316 µM, first compound 0.1 µM): 103% | viability, T/C (second compound 0.00316 µM, first compound 0.316 µM): 117% | viability, T/C (second compound 0.00316 µM, first compound 1 µM): 107% | viability, T/C (second compound 0.01 µM, first compound 0.00316 µM): 100% | viability, T/C (second compound 0.01 µM, first compound 0.01 µM): 105% | viability, T/C (second compound 0.01 µM, first compound 0.0316 µM): 105% | viability, T/C (second compound 0.01 µM, first compound 0.1 µM): 109% | viability, T/C (second compound 0.01 µM, first compound 0.316 µM): 118% | viability, T/C (second compound 0.01 µM, first compound 1 µM): 115% | viability, T/C (second compound 0.0316 µM, first compound 0.00316 µM): 102% | viability, T/C (second compound 0.0316 µM, first compound 0.01 µM): 103% | viability, T/C (second compound 0.0316 µM, first compound 0.0316 µM): 112% | viability, T/C (second compound 0.0316 µM, first compound 0.1 µM): 109% | viability, T/C (second compound 0.0316 µM, first compound 0.316 µM): 119% | viability, T/C (second compound 0.0316 µM, first compound 1 µM): 113% | viability, T/C (second compound 0.1 µM, first compound 0.00316 µM): 95.8% | viability, T/C (second compound 0.1 µM, first compound 0.01 µM): 105% | viability, T/C (second compound 0.1 µM, first compound 0.0316 µM): 108% | viability, T/C (second compound 0.1 µM, first compound 0.1 µM): 112% | viability, T/C (second compound 0.1 µM, first compound 0.316 µM): 119% | viability, T/C (second compound 0.1 µM, first compound 1 µM): 111% | viability, T/C (second compound 0.316 µM, first compound 0.00316 µM): 102% | viability, T/C (second compound 0.316 µM, first compound 0.01 µM): 105% | viability, T/C (second compound 0.316 µM, first compound 0.0316 µM): 113% | viability, T/C (second compound 0.316 µM, first compound 0.1 µM): 113% | viability, T/C (second compound 0.316 µM, first compound 0.316 µM): 119% | viability, T/C (second compound 0.316 µM, first compound 1 µM): 115% | viability, T/C (second compound 1 µM, first compound 0.00316 µM): 108% | viability, T/C (second compound 1 µM, first compound 0.01 µM): 111% | viability, T/C (second compound 1 µM, first compound 0.0316 µM): 112% | viability, T/C (second compound 1 µM, first compound 0.1 µM): 114% | viability, T/C (second compound 1 µM, first compound 0.316 µM): 120% | viability, T/C (second compound 1 µM, first compound 1 µM): 101%
